Measured values: paper PMC4434464 (ACS Medicinal Chemistry Letters, 2015)
“And” between values parts separate entries of the source, which are not always exact repeats. Equal entries are not always repeated. “Also recorded” adds a separate entry of the source.

Experiments:
[1] = plasma protein binding, equilibrium dialysis, mouse; assay type: in vitro ADME
[2] = rat oral PK of D-tartrate salt; assay type: in vivo; details: for time above LCC: p.o., D-tartrate salt; for AUC(0-inf) / Cmax / Tmax: plasma, po
[3] = plasma protein binding, equilibrium dialysis, rat; assay type: in vitro ADME
[4] = liver microsome clearance, mouse; assay type: in vitro ADME; details: mouse liver microsomes
[5] = tested on: H3K27me3 in WSU-DLCL2 cells; assay: ELISA of cellular H3K27me3 methyl mark reduction; details: read-out: ELISA H3K27me3 IC50; WSU-DLCL2 (Y641F mutant-bearing) cells; n = 20
[6] = plasma exposure in the KARPAS-422 xenograft study; assay type: in vivo, SCID mice; details: 250 mg/kg BID, D-tartrate salt, day 7
[7] = liver microsome clearance, human; assay type: in vitro ADME; details: human liver microsomes
[8] = plasma protein binding, equilibrium dialysis, human; assay type: in vitro ADME
[9] = tested on: subcutaneous EZH2 mutant KARPAS-422 human DLBCL xenografts; assay: KARPAS-422 xenograft antitumor activity; assay type: in vivo, SCID mice; details: 250 and 500 mg/kg BID orally, 21 days
[10] = 7-day BID PK study, plasma exposure and tolerability; assay type: in vivo, mouse
WSU-DLCL2 cells [11] = assay: predicted efficacious plasma exposure; details: human; plasma protein binding corrected LCC
[12] = tested on: H3K27 methyl mark in tumor tissue; assay: PD in KARPAS-422 tumor samples, H3K27 methyl mark; assay type: in vivo, SCID mice; details: day 7, 250 and 500 mg/kg, over the 12 h time-course
WSU-DLCL2 cells [13] = assay: 11-day proliferation assay, LCC; details: n = 4
[14] = tested on: H3K27 methylation in bone marrow; assay: 7-day BID PD, H3K27 methylation in bone marrow; assay type: in vivo, mouse; details: 500 mg/kg BID, end of day 7
[15] = liver microsome clearance, rat; assay type: in vitro ADME; details: rat liver microsomes
[16] = single dose oral PK in SCID mice; assay type: in vivo

In the case of `CCN(c1cc(C#CCN2CCOCC2)cc(C(=O)NCc2c(C)cc(C)[nH]c2=O)c1C)[C@H]1CC[C@H](N(C)CCOC)CC1` [EPZ011989, N-((4,6-Dimethyl-2-oxo-1,2-dihydropyridin-3-yl)methyl)-3-(ethyl((trans)-4-((2-methoxyethyl)(methyl)amino)cyclohexyl)amino)-2-methyl-5-(3-morpholinoprop-1-yn-1-yl)benzamide], the fraction unbound [1] is reported as 0.8 ± 0.11, the “time above LCC” value ([2]; 30 mg/kg) is reported as 4 h and the “time above LCC” value ([2]; 100 mg/kg) is reported as 8 h. The AUC(0-inf) ([2]; 30 mg/kg) was 970 ng·h/mL, the Cmax ([2]; 30 mg/kg) was 240 ng/mL and the Tmax ([2]; 30 mg/kg) was 2 h. It also gave an AUC(0-inf) ([2]; 100 mg/kg) of 5600 ng·h/mL, a Cmax ([2]; 100 mg/kg) of 1600 ng/mL and a Tmax ([2]; 100 mg/kg) of 2.7 h. For the same compound, the AUC(0-inf) ([2]; 300 mg/kg) was 10000 ng·h/mL, the Cmax ([2]; 300 mg/kg) was 2900 ng/mL and the Tmax ([2]; 300 mg/kg) was 2.7 h. The fraction unbound [3] was 0.91 ± 0.06, the “percent hepatic extraction (%Eh)” value [4] was less than 11% and the IC50 [5] was 0.094 ± 0.048 µM. For the same compound, the “time over the predicted efficacious plasma levels” value [6] was no less than 6 h, the “percent hepatic extraction (%Eh)” value [7] was 29% and the fraction unbound [8] was 0.97 ± 0.03. For the same compound, the “effect on mean body weights” value [9] was “nominal effect on mean body weights”, the antitumor activity ([9]; D-tartrate salt, SCID mice) was “significant tumor regression at both doses; also recorded: Robust tumor growth inhibition” and the “dose that achieves complete coverage over the predicted efficacious plasma level” value ([10]; 7-day BID study) was 500 mg/kg BID. For the same compound, the tolerability ([10]; 125, 250, 500, 750 and 1000 mg/kg BID, 7 days) was “well tolerated”, the “predicted efficacious plasma exposure” value (WSU-DLCL2 cells [11]) was 214 nM and 130 ng/mL and the “H3K27 methyl mark in tumor samples” value [12] was “robust H3K27 methyl mark reduction”. For the same compound, the “LCC (lowest cytotoxic concentration), 11d proliferation WSU-DLCL2” value (WSU-DLCL2 cells [13]) was 208 nM and 208 ± 75 (n = 4) nM, the “H3K27 methyl mark in bone marrow” value [14] was “complete ablation of the methyl mark” and the “percent hepatic extraction (%Eh)” value [15] was less than 14%. For the same compound, the “coverage over the LCC (time)” value ([16]; single oral dose 250 mg/kg) was “approximately 8 h” and the “coverage over the LCC (time)” value ([16]; single oral dose 500 mg/kg) was “approximately 8 h”.
